Consider one compound from patent US20140030341A1, “POLYMERS AND METHODS FOR THE TREATMENT OF PAIN” (RUTGERS, THE STATE UNIVERSITY OF NEW JERSEY, priority 2011, published 2014).

The conditions of series [1]: 37° C., pH 7.4 buffer, HPLC.
Method: The system was connected to a Dell computer running Empire software. Samples were filtered using 0.22 μm poly(vinylidine fluoride) syringe filters (Fisher). […] Mobile phase used was composed of 50 mM KH2PO4, 2.5 mM sodium dodecyl sulfate, 25% acetonitrile, 75% water at pH 3.
In vitro degradation studies. Diacid 3 (5.0 mg, triplicate) was placed into scintillation vials and 20.00 mL phosphate buffered saline (PBS) pH 7.4 added. Samples were incubated at 37° C. under constant shaking (60 rpm) in an Excella E25 Incubator Shaker (New Brunswick Scientific). PBS (1.00 mL) was removed at predetermined time points (2 h, 5 h, 10 h, and daily starting on day 1) and replaced with fresh PBS (1.00 mL). The pH was checked using an Accumet® Research AR15 pH meter (Fisher Scientific) and adjusted using 0.50 M NaOH when needed. Samples were immediately analyzed by HPLC using the conditions outlined above.
Samples were incubated at 37° C. under constant shaking (60 rpm) in an Excella E25 Incubator Shaker (New Brunswick Scientific). PBS (20.00 mL) was removed daily and replaced with fresh PBS. Samples were analyzed by HPLC.
Series [2] deals with 3T3 fibroblasts cells (NIH 3T3 fibroblast cell line).
Method: Cytocompatibility was evaluated by culturing 3T3 fibroblasts cells (NIH 3T3 fibroblast cell line) in diacid- and/or polymer-containing medium at concentrations of 0.10 and 0.01 mg/mL Cell culture medium consisted of Dulbecco's modified Eagle's medium (DMEM), 10 vol. % fetal bovine serum (Atlanta Biologicals, Lawrenceville, Ga.), 1% 1-glutamate, and 1% penicillin/streptomycin. Fibroblasts were seeded at a density of 2,000 cells/well in 96 well plates containing 150 μL of culture medium. The positive control consisted of fibroblasts with cell culture media only and the negative control consisted of fibroblasts with cell culture media and 5% 200-proof ethanol (PHARMCO-AAPER). […] Cell viability was determined by using Calcein AM and ethidium homodimer-1 staining (Molecular Probes) according to the manufacturer's protocol and the results normalized to the positive control. […] Experiments were performed in quadruplicates.

For the compound `CN1CC[C@]23c4c5ccc(OC(=O)CCCC(=O)O)c4O[C@H]2[C@@H](OC(=O)CCCC(=O)O)C=C[C@H]3[C@H]1C5` [Diacid 3], the hydrolytic degradation pathway entry in series [1] is reported as “hydrolyzes into a monoacid”. Besides, the “cell viability vs positive control (FIG. 7A)” value in series [2] (0.10 mg/mL, 95% confidence level) is “no statistical differences”. Moreover, the cytotoxicity towards fibroblasts result in series [2] (0.10 and 0.01 mg/mL) was “non-cytotoxic”. Further, in series [2] (0.10 and 0.01 mg/mL, 24, 48 and 72 h, 95% confidence level), the “cell viability vs positive control (statistical analysis)” value was “no significant differences”.
